{
  "source": "paper PMC11513842",
  "about": "“Development of an orally bioavailable CDK12/13 degrader and induction of synthetic lethality with AKT pathway inhibition” (Cell Reports Medicine, 2024)",
  "key": {"VCaP cells": {"tested_on": "VCaP cells", "test": "Cell viability assay (CellTiter-Glo, 5 days)", "type": "cell-based, human", "procedure": "Cells were seeded in 96-well plates and incubated at 37°C with 5% CO2 overnight. A series of compound dilutions were added into the cells. After 5 days incubation, cell proliferation was tested using the CellTiter-Glo assay (Promega) according to the manufacturer’s protocol. Luminescence was measured using the Infinite M1000 Pro plate reader (Tecan). Data analysis was conducted using GraphPad Prism software."}, "CDK12 and CDK13": {"tested_on": "CDK12 and CDK13", "settings": "VCaP cells", "procedure": "After treatment of varying conditions, cell lysates were prepared using RIPA buffer (ThermoFisher Scientific) supplemented with cOmplete protease inhibitor cocktail tablets (Sigma-Aldrich). The Pierce BCA Protein Assay Kit ([…]) was used to determine the protein concentrations. Proteins with an equal amount from each sample were loaded on NuPAGE 3–8% Tris-Acetate or 4–12% Bis-Tris protein gels (ThermoFisher Scientific) and subsequently transferred to membranes, which were blocked using 5% nonfat milk. Following blocking at room temperature for 1 h, the membrane was further incubated with varying primary antibodies at 4°C overnight. HRP-conjugated secondary antibodies were used for detection, and membrane imaging was conducted using an Odyssey Fc Imager (LI-COR Biosciences)."}, "PC310 PDX": {"tested_on": "PC310 PDX", "test": "PC310 patient-derived xenograft efficacy", "type": "in vivo, mouse", "settings": "YJ1206 p.o. 100 mg/kg 3x/week, uprosertib p.o. 15 mg/kg 5x/week", "procedure": "(§1) Six-week-old male CB17SCID mice obtained from Charles River (Stock # 236), were used to establish subcutaneous tumors on both dorsal flanks. Tumor dimensions were measured biweekly using digital calipers, applying the formula (π/6) (L × W^2), where L and W represent tumor length and width, respectively. At the study conclusion, mice were euthanized, and tumors were excised and weighed. The University of Michigan Institutional Animal Care and Use Committee (IACUC) approved all in vivo studies.\nWA74 PDX model was developed at the University of Michigan during collection of a rapid autopsy case as part of the Michigan Legacy Tissue Program (MLTP). PC310 PDX model was obtained from Erasmus Medical Center, Rotterdam, the Netherlands. Both PDX lines were propagated in male CB17SCID mice by surgically implanting 2 mm^3 tumor fragments, coated with 100% Matrigel, into both flanks of mice. When tumors reached approximately 200 mm^3, mice were randomized into treatment groups. These groups received either 30 mg/kg YJ9069 via intravenous injection or 100 mg/kg YJ1206 by oral gavage, both administered three times per week, with or without 15 mg/kg uprosertib by oral gavage five days per week for 3–4 weeks. In accordance with IACUC guidelines, the maximum tumor size was limited to 2.0 cm in any dimension, and mice were euthanized if xenografts reached this endpoint."}, "[1]": {"tested_on": "castrated VCaP xenograft (VCaP-CRPC)", "test": "VCaP castration-resistant prostate cancer xenograft efficacy", "type": "in vivo, mouse", "settings": "castrated VCaP xenograft, 31 days; YJ1206 p.o. 100 mg/kg 3x/week, uprosertib p.o. 15 mg/kg 5x/week", "procedure": "as §1\n(§2) For the VCaP castration-resistant tumor model, 3×10^6 VCaP cells were subcutaneously injected into both dorsal flanks of mice using a serum-free medium mixed with 50% Matrigel (BD Biosciences). Upon tumors reaching palpable size (∼200 mm^3), animals underwent castration. When tumors regrew to their pre-castration size, mice were randomized for treatment with 30 mg/kg YJ9069 or vehicle via intravenous injection or 100 mg/kg YJ1206 or vehicle, […]"}, "[2]": {"tested_on": "castrated VCaP and 22Rv1 CDX models", "test": "Castrated VCaP and 22Rv1 CDX models, combination efficacy", "type": "in vivo, mouse", "settings": "YJ1206 p.o. 100 mg/kg 3x/week, uprosertib p.o. 15 mg/kg 5x/week", "procedure": "as §1\nas §2, with “vehicle, with or without 15 mg/kg uprosertib by oral gavage.” for “vehicle,”\nFor the 22Rv1 castration-resistant tumor model, mice underwent castration and then 12 days of recovery. Subsequently, 1 × 10^6 22Rv1 cells were subcutaneously injected into both dorsal flanks using a serum-free medium with 50% Matrigel (BD Biosciences). […]"}, "[3]": {"test": "Pharmacokinetic profile in Sprague Dawley rats", "type": "in vivo, rat", "settings": "SD rats"}, "[4]": {"settings": "VCaP cell viability, linker optimization, Figure S4B, read-out: VCaP IC50"}},
  "note": "Values joined by “and” are separate entries in the source; they are usually repeats but may differ in a detail not shown here. Identical values can stand only once. Like-named read-outs stand apart in the source and are kept apart here.",
  "data": [
    {"molecule": "O=C1CCC(N2Cc3ccc(OCC(=O)N4CCN(c5ccc(N(C(=O)NCc6ccccc6)C6CCC(Nc7ncc8ccccc8n7)CC6)cc5)CC4)cc3C2=O)C(=O)N1", "note": "(stereo not drawn) [YJ1094]", "values": [
      {"measurement": "IC50", "setting": "VCaP cells; [4]", "value": 25.2, "unit": "nM"},
      {"measurement": "CDK12/13 degradation (immunoblot)", "setting": "CDK12 and CDK13", "value": "retained the CDK12/13 degradation abilities"}
    ]},
    {"molecule": "O=C1CCC(N2C(=O)c3ccccc3C2=O)C(=O)N1", "note": "(stereo not drawn) [thalidomide, reference compound]", "values": [
      {"measurement": "CDK12/13 degradation (immunoblot)", "setting": "CDK12 and CDK13", "value": "did not affect target protein levels"}
    ]},
    {"molecule": "O=C1CCC(N2C(=O)c3ccc(OCC(=O)N4CCN(c5ccc(N(C(=O)NCc6ccccc6)C6CCC(Nc7ncc8ccccc8n7)CC6)cc5)CC4)cc3C2=O)C(=O)N1", "note": "(stereo not drawn) [YJ1090]", "values": [
      {"measurement": "IC50", "setting": "VCaP cells; [4]", "value": 93.8, "unit": "nM"},
      {"measurement": "CDK12/13 degradation (immunoblot)", "setting": "CDK12 and CDK13", "value": "retained the CDK12/13 degradation abilities"}
    ]},
    {"molecule": "Cn1ncc(Cl)c1-c1cc(C(=O)N[C@H](CN)Cc2ccc(F)c(F)c2)oc1Cl", "note": "[uprosertib, reference compound]", "values": [
      {"measurement": "progressive disease (PD), waterfall plot (RECIST)", "setting": "PC310 PDX", "value": 100, "unit": "%"},
      {"measurement": "tumor growth inhibition", "setting": "PC310 PDX", "value": "only moderate or mild tumor inhibition"},
      {"measurement": "progressive disease (PD), waterfall plot (RECIST)", "setting": "[1]", "value": 100, "unit": "%"},
      {"measurement": "anti-tumor efficacy", "setting": "[2]", "value": "moderate anti-tumor efficacy"}
    ]},
    {"molecule": "O=C1CCC(N2C(=O)c3ccc(N4CCC(N5CCN(c6ccc(N(C(=O)NCc7ccccc7)C7CCC(Nc8ncc9ccccc9n8)CC7)cc6)CC5)CC4)cc3C2=O)C(=O)N1", "note": "(stereo not drawn) [YJ1105]", "values": [
      {"measurement": "IC50", "setting": "VCaP cells; [4]", "value": "15.1 nM and < 20 nM"},
      {"measurement": "AUC(0-t)", "setting": "[3]; i.v. 2.5 mg/kg", "value": 8039.69, "unit": "ng·h/mL"},
      {"measurement": "CL", "setting": "[3]; i.v. 2.5 mg/kg", "value": 4.8027, "unit": "mL/min/kg"},
      {"measurement": "Cmax", "setting": "[3]; i.v. 2.5 mg/kg", "value": 1580, "unit": "nM"},
      {"measurement": "T1/2", "setting": "[3]; i.v. 2.5 mg/kg", "value": 7.05, "unit": "h"},
      {"measurement": "Tmax", "setting": "[3]; i.v. 2.5 mg/kg", "value": 0.08, "unit": "h"},
      {"measurement": "AUC(0-)", "setting": "[3]; oral 10 mg/kg", "value": 9805.4, "unit": "ng·h/mL"},
      {"measurement": "AUC(0-t)", "setting": "[3]; oral 10 mg/kg", "value": 8567.43, "unit": "ng·h/mL"},
      {"measurement": "Cmax", "setting": "[3]; oral 10 mg/kg", "value": 715, "unit": "nM"},
      {"measurement": "T1/2", "setting": "[3]; oral 10 mg/kg", "value": 7.2, "unit": "h"},
      {"measurement": "Tmax", "setting": "[3]; oral 10 mg/kg", "value": 6, "unit": "h"},
      {"measurement": "F(%) (bioavailability by oral gavage)", "setting": "[3]; oral 10 mg/kg vs i.v. 2.5 mg/kg", "value": 26.64, "unit": "%"},
      {"measurement": "CDK12/13 degradation (immunoblot)", "setting": "CDK12 and CDK13", "value": "potent degradation effects"}
    ]},
    {"molecule": "O=C(NCc1ccccc1)N(c1ccc(N2CCNCC2)cc1)[C@H]1CC[C@H](Nc2ncc3ccccc3n2)CC1", "note": "[YJ9068]", "values": [
      {"measurement": "IC50", "setting": "VCaP cells; VCaP cells, 5 days, Figure S1E, read-out: IC50", "value": 1080, "unit": "nM"},
      {"measurement": "CDK12/13 degradation (immunoblot)", "setting": "CDK12 and CDK13", "value": "did not affect target protein levels"}
    ]}
  ]
}
